Data published in publication PMC12136037, “Type II kinase inhibitors that target Parkinson’s disease–associated LRRK2” (Science Advances, 2025).
Read-outs that look alike come from different tables or passages of the source.

What was measured:
Assay in all cases: DSF 100 kinase selectivity screen;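 for dTm: compound tested at 20 µM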
Format in all cases: binding
[1] = target: T1, ~100 representative kinases (Homo sapiens, UniProt O15075); conditions: Protein DCAMKL1; average of three replicates
T1 construct: Recombinant protein kinase domains with a concentration of 2 μM
How it was run: (§1)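 Each kinase domain, at 2 μM, is mixed with 20 μM test compound and SYPRO Orange in Hepes (20 mM, pH 7.5) with 500 mM NaCl. Temperature is then raised at 3°C/min and fluorescence-monitored unfolding yields the melting temperature change, ΔTm in degrees Celsius.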

[2] = target: T2, ~100 representative kinases (Homo sapiens, UniProt O43293); conditions: Protein DAPK3; average of three replicates
T2 construct: Recombinant protein kinase domains with a concentration of 2 μM
T2 sequence (O43293 whole entry, the tested form may be a part): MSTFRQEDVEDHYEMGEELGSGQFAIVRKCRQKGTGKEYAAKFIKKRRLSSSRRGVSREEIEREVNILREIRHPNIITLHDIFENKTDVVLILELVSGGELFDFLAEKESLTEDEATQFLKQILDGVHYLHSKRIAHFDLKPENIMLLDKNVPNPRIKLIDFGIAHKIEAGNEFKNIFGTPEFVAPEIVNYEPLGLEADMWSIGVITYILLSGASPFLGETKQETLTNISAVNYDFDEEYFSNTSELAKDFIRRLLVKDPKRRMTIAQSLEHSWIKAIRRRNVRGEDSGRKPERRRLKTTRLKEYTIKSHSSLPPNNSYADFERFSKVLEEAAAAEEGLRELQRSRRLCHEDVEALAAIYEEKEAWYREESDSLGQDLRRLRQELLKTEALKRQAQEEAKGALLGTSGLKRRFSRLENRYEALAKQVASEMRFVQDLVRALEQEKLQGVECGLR
How it was run: as §1

[3] = target: T3, ~100 representative kinases (Homo sapiens, UniProt O94768); conditions: Protein STK17B; DSF; average of three replicates
T3 construct: Recombinant protein kinase domains with a concentration of 2 μM
T3 sequence (O94768 1-372): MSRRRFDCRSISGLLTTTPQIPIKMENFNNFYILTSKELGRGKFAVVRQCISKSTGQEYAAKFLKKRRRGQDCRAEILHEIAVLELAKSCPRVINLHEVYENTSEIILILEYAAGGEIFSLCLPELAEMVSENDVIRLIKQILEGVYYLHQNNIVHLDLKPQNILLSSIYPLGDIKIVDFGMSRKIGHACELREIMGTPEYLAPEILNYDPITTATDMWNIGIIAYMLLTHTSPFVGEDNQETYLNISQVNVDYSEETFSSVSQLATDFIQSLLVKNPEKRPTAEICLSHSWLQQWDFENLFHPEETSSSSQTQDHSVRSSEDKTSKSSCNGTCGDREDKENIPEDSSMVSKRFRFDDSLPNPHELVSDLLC
How it was run: as §1

[4] = target: T4, ~100 representative kinases (Homo sapiens, UniProt O95747); conditions: protein OSR1; average of three replicates
T4 construct: Recombinant protein kinase domains with a concentration of 2 μM
How it was run: as §1

[5] = target: T5, ~100 representative kinases (Homo sapiens, UniProt P07332); conditions: protein FESA; average of three replicates
T5 construct: Recombinant protein kinase domains with a concentration of 2 μM
T5 sequence (P07332 whole entry, the tested form may be a part): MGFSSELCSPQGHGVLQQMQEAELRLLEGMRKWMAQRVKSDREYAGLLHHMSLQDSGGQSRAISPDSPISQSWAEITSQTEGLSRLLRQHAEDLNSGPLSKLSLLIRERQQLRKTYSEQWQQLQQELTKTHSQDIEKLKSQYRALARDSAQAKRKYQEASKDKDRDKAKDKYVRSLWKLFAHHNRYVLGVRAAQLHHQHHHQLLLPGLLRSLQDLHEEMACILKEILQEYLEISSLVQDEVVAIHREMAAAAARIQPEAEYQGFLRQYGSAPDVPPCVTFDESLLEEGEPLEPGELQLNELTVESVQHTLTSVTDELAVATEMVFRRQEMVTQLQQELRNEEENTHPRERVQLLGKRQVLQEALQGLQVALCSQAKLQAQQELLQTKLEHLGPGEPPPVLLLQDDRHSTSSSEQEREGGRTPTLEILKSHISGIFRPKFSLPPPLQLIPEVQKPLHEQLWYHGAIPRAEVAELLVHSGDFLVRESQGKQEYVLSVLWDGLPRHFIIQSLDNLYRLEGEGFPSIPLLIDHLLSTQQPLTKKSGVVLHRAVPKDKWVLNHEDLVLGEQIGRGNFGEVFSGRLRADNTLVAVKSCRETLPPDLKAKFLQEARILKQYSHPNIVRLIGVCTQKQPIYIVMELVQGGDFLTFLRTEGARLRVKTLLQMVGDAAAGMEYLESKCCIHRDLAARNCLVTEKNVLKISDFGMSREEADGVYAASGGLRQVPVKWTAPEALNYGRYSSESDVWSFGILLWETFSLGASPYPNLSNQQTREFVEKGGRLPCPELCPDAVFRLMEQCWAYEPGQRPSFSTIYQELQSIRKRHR
How it was run: as §1

[6] = target: T6, ~100 representative kinases (Homo sapiens, UniProt P28482); conditions: protein MAPK1; average of three replicates
T6 construct: Recombinant protein kinase domains with a concentration of 2 μM
T6 sequence (P28482 whole entry, the tested form may be a part): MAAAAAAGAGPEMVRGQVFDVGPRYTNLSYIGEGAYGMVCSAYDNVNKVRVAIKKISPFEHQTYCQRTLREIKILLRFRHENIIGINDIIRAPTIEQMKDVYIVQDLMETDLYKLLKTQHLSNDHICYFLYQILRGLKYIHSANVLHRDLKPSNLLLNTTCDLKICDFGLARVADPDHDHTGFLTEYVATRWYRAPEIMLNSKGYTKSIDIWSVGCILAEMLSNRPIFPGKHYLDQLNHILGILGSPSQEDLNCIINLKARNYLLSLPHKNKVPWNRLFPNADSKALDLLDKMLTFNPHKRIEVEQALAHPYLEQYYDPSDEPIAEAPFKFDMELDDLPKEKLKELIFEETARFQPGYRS
How it was run: as §1

[7] = target: T7, ~100 representative kinases (Homo sapiens, UniProt P49759); conditions: Protein CLK1; average of three replicates
T7 construct: Recombinant protein kinase domains with a concentration of 2 μM
How it was run: as §1

[8] = target: T8, ~100 representative kinases (Homo sapiens, UniProt P49761); conditions: Protein CLK3; average of three replicates
T8 construct: Recombinant protein kinase domains with a concentration of 2 μM
T8 sequence (P49761 whole entry, the tested form may be a part): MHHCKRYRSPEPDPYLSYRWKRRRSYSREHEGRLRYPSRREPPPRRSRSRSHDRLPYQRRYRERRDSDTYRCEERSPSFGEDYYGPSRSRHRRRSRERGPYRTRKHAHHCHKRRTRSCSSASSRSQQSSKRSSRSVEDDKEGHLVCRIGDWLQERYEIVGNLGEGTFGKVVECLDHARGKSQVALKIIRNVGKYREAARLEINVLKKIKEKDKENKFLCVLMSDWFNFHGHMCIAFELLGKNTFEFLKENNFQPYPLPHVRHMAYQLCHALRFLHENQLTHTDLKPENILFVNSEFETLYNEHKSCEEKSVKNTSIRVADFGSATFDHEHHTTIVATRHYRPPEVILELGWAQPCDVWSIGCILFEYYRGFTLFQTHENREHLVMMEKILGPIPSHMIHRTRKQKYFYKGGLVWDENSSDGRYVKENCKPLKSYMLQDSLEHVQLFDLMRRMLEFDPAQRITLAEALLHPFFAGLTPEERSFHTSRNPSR
How it was run: as §1

[9] = target: T9, ~100 representative kinases (Homo sapiens, UniProt P54764); conditions: Protein EPHA4; average of three replicates
T9 construct: Recombinant protein kinase domains with a concentration of 2 μM
T9 sequence (P54764 20-986): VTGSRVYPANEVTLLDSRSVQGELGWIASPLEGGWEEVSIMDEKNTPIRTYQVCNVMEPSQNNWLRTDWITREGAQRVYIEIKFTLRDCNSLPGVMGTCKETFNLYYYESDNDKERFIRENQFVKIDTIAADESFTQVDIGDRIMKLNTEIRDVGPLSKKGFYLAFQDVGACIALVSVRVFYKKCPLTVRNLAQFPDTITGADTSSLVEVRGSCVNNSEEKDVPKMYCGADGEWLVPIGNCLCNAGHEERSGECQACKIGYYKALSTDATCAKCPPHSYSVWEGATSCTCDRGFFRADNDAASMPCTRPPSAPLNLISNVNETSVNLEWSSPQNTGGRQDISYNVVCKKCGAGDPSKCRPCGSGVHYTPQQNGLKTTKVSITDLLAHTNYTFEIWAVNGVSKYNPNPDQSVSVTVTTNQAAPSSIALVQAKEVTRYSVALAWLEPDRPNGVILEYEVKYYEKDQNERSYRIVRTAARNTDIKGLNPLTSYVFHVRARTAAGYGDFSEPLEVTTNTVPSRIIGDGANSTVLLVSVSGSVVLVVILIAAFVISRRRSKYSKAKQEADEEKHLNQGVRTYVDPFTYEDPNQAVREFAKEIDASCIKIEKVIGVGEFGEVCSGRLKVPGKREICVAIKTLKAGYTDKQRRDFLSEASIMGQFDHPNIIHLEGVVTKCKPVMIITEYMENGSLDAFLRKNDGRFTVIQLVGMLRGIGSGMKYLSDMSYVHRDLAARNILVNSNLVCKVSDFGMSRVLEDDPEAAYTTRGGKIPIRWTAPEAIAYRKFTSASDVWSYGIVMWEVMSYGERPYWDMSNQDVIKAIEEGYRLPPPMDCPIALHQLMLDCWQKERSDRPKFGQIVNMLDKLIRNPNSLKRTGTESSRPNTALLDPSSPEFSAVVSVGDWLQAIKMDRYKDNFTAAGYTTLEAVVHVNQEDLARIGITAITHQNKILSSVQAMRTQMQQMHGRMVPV
How it was run: as §1

[10] = target: T10, ~100 representative kinases (Homo sapiens, UniProt Q13188); conditions: Protein STK3; DSF; average of three replicates
T10 construct: Recombinant protein kinase domains with a concentration of 2 μM
T10 sequence (Q13188 1-491): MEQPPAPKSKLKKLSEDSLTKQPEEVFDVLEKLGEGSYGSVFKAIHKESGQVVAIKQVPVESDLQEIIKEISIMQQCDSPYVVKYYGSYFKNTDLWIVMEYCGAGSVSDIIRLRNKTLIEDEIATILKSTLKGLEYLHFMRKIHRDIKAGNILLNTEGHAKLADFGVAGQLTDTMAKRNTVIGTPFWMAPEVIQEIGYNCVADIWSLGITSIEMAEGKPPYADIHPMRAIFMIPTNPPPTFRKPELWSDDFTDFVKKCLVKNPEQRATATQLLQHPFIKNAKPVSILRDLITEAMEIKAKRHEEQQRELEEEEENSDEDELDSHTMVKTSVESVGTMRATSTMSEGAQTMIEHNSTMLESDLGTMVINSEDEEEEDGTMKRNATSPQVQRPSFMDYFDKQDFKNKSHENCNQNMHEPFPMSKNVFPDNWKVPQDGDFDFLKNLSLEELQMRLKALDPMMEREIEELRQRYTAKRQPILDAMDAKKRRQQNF
How it was run: as §1

[11] = target: T11, ~100 representative kinases (Homo sapiens, UniProt Q86V86); conditions: protein PIM3; average of three replicates
T11 construct: Recombinant protein kinase domains with a concentration of 2 μM
How it was run: as §1

[12] = target: T12, ~100 representative kinases (Homo sapiens, UniProt Q96SB4); conditions: Protein SRPK1; DSF; average of three replicates
T12 construct: Recombinant protein kinase domains with a concentration of 2 μM
T12 sequence (Q96SB4 whole entry, the tested form may be a part): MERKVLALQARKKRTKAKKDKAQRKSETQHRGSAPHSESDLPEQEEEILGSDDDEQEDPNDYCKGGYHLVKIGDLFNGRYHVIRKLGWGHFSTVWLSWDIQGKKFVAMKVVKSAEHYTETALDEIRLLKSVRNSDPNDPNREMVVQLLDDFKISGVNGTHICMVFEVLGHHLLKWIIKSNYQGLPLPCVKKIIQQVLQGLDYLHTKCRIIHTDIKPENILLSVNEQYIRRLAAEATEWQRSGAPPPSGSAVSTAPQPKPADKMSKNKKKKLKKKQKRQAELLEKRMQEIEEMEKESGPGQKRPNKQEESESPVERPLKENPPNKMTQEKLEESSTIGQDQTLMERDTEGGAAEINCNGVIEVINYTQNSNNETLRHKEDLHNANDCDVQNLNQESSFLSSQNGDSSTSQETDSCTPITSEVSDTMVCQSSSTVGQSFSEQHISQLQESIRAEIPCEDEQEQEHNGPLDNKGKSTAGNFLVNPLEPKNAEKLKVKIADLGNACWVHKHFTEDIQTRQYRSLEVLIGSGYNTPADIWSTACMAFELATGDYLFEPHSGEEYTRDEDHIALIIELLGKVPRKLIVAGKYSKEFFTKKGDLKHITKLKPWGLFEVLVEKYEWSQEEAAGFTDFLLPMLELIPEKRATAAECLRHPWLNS
How it was run: as §1

[13] = target: T13, ~100 representative kinases (Homo sapiens, UniProt Q99986); conditions: Protein VRK1; DSF; average of three replicates
T13 construct: Recombinant protein kinase domains with a concentration of 2 μM
T13 sequence (Q99986 1-396): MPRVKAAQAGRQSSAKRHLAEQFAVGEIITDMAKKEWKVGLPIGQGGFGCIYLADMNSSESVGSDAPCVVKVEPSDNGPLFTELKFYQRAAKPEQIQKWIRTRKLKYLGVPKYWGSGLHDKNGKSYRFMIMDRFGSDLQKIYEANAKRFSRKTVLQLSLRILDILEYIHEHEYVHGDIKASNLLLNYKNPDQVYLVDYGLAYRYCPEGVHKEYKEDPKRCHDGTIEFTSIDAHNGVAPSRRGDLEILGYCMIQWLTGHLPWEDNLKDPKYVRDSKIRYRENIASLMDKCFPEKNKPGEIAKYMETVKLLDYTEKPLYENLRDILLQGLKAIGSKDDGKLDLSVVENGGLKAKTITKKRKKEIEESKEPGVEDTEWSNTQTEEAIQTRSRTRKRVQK
How it was run: as §1

[14] = target: T14, ~100 representative kinases (Homo sapiens, UniProt Q9UEW8); conditions: Protein STK39; DSF; average of three replicates
T14 construct: Recombinant protein kinase domains with a concentration of 2 μM
How it was run: as §1

[15] = target: T15, ~100 representative kinases (Homo sapiens, UniProt Q9Y243); conditions: Protein AKT3; average of three replicates
T15 construct: Recombinant protein kinase domains with a concentration of 2 μM
T15 sequence (Q9Y243 whole entry, the tested form may be a part): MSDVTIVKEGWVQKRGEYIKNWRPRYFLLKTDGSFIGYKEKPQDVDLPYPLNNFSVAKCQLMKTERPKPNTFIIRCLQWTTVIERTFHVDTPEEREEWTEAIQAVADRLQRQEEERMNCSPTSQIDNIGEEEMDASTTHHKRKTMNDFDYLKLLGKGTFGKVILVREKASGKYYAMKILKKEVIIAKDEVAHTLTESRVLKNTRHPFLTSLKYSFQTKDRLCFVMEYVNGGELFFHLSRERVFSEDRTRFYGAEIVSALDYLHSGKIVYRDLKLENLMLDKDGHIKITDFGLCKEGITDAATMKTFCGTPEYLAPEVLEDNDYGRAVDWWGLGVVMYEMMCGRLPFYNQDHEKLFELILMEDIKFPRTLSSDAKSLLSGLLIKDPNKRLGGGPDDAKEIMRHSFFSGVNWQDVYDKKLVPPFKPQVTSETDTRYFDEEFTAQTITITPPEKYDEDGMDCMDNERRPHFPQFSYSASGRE
How it was run: as §1

[16] = target: T16, ~100 representative kinases (Homo sapiens, UniProt Q9Y6E0); conditions: protein MST3; average of three replicates
T16 construct: Recombinant protein kinase domains with a concentration of 2 μM
T16 sequence (Q9Y6E0 whole entry, the tested form may be a part): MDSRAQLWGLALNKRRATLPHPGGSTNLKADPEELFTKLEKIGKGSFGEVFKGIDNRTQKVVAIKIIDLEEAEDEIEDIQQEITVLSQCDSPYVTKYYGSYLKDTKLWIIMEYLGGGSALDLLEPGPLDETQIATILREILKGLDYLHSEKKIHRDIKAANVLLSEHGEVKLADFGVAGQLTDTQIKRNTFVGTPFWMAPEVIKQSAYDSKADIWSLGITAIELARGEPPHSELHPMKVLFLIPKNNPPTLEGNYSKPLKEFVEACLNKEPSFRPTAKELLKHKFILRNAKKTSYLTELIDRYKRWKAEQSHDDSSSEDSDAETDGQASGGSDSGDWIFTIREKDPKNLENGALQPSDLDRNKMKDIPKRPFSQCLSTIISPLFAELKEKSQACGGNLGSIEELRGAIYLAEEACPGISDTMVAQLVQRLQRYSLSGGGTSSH
How it was run: as §1

[17] = tested on: ~100 representative kinases; conditions: for dTm: Protein BRD, average of three replicates
How it was run: as §1

[18] = number of kinases with thermal shift >5 K divided by total number of kinases screened
[19] = number of proteins of the DSF panel with dTm >5K
[20] = selectivity score: # >5K divided by # of proteins tested in the DSF panel

SMILES	dTm [1] [K]	dTm [2] [K]	dTm [3] [K]	dTm [4] [K]	dTm [5] [K]	dTm [6] [K]	dTm [7] [K]	dTm [8] [K]	dTm [9] [K]	dTm [10] [K]	dTm [11] [K]	dTm [12] [K]	dTm [13] [K]	dTm [14] [K]	dTm [15] [K]	dTm [16] [K]	dTm [17] [K]	S(5K) [17, 18]	# >5K [17, 19]	S(5K) [17, 20]	other results
Cc1ccc(-n2nc(C(C)(C)C)cc2NC(=O)Nc2cccc(-c3c[nH]c4ncnc(N5CCOCC5)c34)c2)cc1 [Compound 29]	2.98	0.00	6.55	0.52	0.00	-0.31	17.42	14.57	6.97	10.79	0.33	11.63	-0.55	6.45	0.14	6.78	-2.22	0.36	36	0.356	–
Cc1ccc(-n2nc(C(C)(C)C)cc2NC(=O)Nc2cccc(-c3c[nH]c4nc(Cl)nc(N5CCOCC5)c34)c2)cc1 [Compound 30]	2.36	6.34	-0.13	-1.12	3.55	-0.99	11.59	3.71	1.07	5.14	-1.11	4.87	-1.13	1.34	-0.99	0.96	-1.65	0.10	10	0.099	S (5 K) / share of screened kinases stabilized ([17]; DSF selectivity panel, thermal shift >5 K): 10%
CC(=O)N1CCN(c2nc(Cl)nc3[nH]cc(-c4cccc(NC(=O)Nc5cc(C(C)(C)C)nn5-c5ccc(C)cc5)c4)c23)CC1 [Compound 31]	2.11	6.63	2.85	-2.10	0.00	-0.85	10.57	3.34	2.58	6.29	0.67	7.78	-1.18	1.08	-0.49	3.03	-3.84	0.15	15	0.149	–
CCSc1nc(NC)c2c(-c3cccc(NC(=O)Nc4cc(C(C)(C)C)nn4-c4ccc(C)cc4)c3)c[nH]c2n1 [Compound 32]	0.67	1.05	6.20	-0.46	3.81	0.25	5.52	0.50	-0.34	0.53	2.14	0.80	-0.68	0.77	0.30	-1.49	-0.35	0.10	10	0.097	number of kinases stabilized (>5 K) ([17]; Rebastinib 96 kinases screened, RN341 103 kinases screened): 10
COc1cc2c(Oc3ccc(NC(=O)C4(C(=O)Nc5ccc(F)cc5)CC4)cc3F)ccnc2cc1OCCCN1CCOCC1 [Foretinib, reference compound]	0.55	5.00	3.63	-0.48	6.46	0.0844	6.72	3.35	11.16	8.88	-0.88	7.77	1.05	0.70	-0.34	4.06	–	–	–	–	# >5K [17]: 30; S(5K) [17]: 0.300

More lines, main results first:

dTm [1] [K]	dTm [2] [K]	dTm [3] [K]	dTm [4] [K]	dTm [5] [K]	dTm [6] [K]	dTm [7] [K]	dTm [8] [K]	dTm [9] [K]	dTm [10] [K]	dTm [11] [K]	dTm [12] [K]	dTm [13] [K]	dTm [14] [K]	dTm [15] [K]	dTm [16] [K]	dTm [17] [K]	S(5K) [17, 18]	# >5K [17, 19]	S(5K) [17, 20]	SMILES	other results
2.05	6.29	10.98	1.88	2.67	1.60	8.96	2.75	-0.69	-0.64	-0.33	3.22	-1.69	2.35	0.29	-3.75	-0.29	0.14	14	0.139	COc1cc(C(=O)N2CCOCC2)c(F)cc1Nc1nc(N(C)C)c2c(Cl)c[nH]c2n1 [Compound 36]	–
-0.34	3.62	9.71	1.40	2.13	0.14	5.62	1.12	-0.37	-0.72	0.48	0.39	-0.55	3.58	-0.25	-2.45	0.52	0.05	5	0.050	COc1cc(S(C)(=O)=O)ccc1Nc1nc(N(C)C)c2c(Cl)c[nH]c2n1 [Compound 37]	–
2.14	1.72	1.02	0.21	2.48	0.38	5.28	1.84	0.0738	0.97	0.92	0.15	0.12	0.28	-0.31	0.91	-0.21	–	3	0.029	CCNc1nc(Nc2cc(F)c(C(=O)N3CCOCC3)cc2OC)ncc1C(F)(F)F [GNE-7915]	–
